Results reported in PMC10954709, “Structure of an open KATP channel reveals tandem PIP2 binding sites mediating the Kir6.2 and SUR1 regulatory interface” (Nature Communications, 2024).
Where “and” joins values, the source holds several entries; their conditions need not be identical. Equal values may be shown once.

Columns and labels:
KATP channels = tested on: KATP channels; set-up: method as in PMID 12525701; details: cited from earlier work
His175 = His175 (UniProt position 175, KTAQAHRRAET); assay: electrophysiology; details: cited from earlier work
[1] = molecular target: T1, SUR1^K134A/Kir6.2 channel (UniProt P70673+Q09427, K134A); assay: PIP2 response, inside-out patch-clamp recording, COSm6 cells; format: biochemical, rat Kir6.2, hamster SUR1; details: 5 μM PIP2; −50 mV; mean (± SEM)
T1 construct: expressed in transfected cells; host or cells: COSm6
T1 sequence (Q09427 whole entry K134A): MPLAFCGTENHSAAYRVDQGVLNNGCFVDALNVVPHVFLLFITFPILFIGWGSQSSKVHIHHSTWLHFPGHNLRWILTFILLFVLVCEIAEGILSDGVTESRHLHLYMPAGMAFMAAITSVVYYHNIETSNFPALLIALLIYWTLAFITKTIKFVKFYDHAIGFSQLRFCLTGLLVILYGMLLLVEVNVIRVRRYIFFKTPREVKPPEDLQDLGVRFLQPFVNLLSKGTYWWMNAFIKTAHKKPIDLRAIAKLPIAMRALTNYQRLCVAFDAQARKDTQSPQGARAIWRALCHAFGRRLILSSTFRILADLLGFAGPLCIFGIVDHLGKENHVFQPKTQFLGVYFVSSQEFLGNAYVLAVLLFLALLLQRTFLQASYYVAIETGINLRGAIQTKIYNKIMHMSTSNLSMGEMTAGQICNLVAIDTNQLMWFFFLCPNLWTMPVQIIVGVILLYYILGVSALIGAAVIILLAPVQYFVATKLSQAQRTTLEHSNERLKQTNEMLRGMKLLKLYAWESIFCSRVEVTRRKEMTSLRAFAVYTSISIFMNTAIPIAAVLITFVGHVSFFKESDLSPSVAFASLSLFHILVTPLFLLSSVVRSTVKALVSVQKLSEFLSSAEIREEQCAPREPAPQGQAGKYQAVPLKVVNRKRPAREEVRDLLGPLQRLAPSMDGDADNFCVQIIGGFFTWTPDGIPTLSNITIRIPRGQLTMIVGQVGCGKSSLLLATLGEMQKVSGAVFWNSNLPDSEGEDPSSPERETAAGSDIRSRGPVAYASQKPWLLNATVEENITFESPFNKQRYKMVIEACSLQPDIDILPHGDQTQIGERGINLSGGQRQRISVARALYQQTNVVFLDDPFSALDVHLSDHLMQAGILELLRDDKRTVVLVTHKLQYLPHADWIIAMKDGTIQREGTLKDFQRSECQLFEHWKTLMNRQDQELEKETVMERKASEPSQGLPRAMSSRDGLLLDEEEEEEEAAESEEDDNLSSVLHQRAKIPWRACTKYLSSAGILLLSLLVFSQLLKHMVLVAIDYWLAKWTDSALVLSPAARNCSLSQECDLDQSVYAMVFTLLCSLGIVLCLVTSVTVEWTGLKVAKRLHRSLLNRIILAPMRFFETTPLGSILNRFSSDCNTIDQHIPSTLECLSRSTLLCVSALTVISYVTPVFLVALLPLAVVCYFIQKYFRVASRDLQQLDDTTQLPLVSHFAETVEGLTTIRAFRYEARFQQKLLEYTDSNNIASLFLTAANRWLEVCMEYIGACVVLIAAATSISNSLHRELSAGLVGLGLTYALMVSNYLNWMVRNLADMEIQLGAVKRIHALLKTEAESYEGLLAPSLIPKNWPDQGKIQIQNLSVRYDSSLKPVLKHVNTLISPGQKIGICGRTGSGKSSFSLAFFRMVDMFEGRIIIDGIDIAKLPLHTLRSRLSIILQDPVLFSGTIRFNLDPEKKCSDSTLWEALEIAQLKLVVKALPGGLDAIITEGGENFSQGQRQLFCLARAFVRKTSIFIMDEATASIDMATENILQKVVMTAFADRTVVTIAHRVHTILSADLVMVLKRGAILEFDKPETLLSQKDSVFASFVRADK
T1 sequence (P70673 whole entry): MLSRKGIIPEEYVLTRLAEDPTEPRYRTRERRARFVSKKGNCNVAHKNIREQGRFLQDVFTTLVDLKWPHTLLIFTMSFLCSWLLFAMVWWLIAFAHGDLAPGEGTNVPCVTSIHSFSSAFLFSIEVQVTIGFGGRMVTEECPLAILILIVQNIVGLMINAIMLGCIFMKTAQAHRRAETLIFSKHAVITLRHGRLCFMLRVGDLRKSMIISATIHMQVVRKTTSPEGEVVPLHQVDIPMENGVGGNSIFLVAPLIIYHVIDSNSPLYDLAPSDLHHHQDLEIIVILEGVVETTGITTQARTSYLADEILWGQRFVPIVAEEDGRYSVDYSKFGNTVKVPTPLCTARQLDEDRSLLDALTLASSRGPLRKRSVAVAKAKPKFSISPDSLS
Procedure: (§1) Fig. 3 Functional testing of the two PIP2 binding sites. a Representative inside-out patch-clamp recordings (−50mV, inward currents shown as upward deflections; the red dashed line indicates 0 currents) of various channels: WT, SUR1^K134A (the non-canonical PIP2 binding site mutation)/Kir6.2, SUR1/Kir6.2^R176A (the canonical PIP2 binding site mutation), and SUR1^K134A/Kir6.2^R176A double mutant, exposed alternately in 5 μM PIP2, 0.1 mM ATP, and 1 mM ATP as indicated by the bars above the recordings. The brief exposures to 0.1 mM and 1 mM ATP between PIP2 exposures were used to monitor the gradual decrease in ATP sensitivity as channel opening became increasingly stabilized by PIP2. b Group data of recordings shown in (a) comparing initial currents in K-INT at the time of patch excision. For each group, mean ± SEM of the data points are shown (WT, n = 12; SUR1^K134A, n = 6; Kir6.2^R176A, n = 7; SUR1^K134A/Kir6.2^R176A, n = 6 cells). Statistical significance was tested between mutants and WT or between double and single mutants using two-tailed unpaired t test with Welch’s correction, alpha = 0.05. *SUR1^K134A vs WT, p = 0.0468; ** Kir6.2^R176A vs WT, p = 0.0016; **SUR1^K134A/Kir6.2^R176A vs WT, p = 0.0014; ^#SUR1^K134A/Kir6.2^R176A vs SUR1^K134A, p = 0.0440; ^$SUR1^K134A/Kir6.2^R176A vs Kir6.2^R176A, p = 0.0411. Note the y-axis in this panel and panel (c) is in log scale for better visualization. c Comparison of the maximum fold-increase in currents after PIP2 exposure in different channels. For each group, mean ± SEM of the data points are shown (WT, n = 12; SUR1^K134A, n = 6; Kir6.2^R176A, n = 7; SUR1^K134A/Kir6.2^R176A, n = 5 cells). Statistical significance was tested between mutants and WT or between double and single mutants using two-tailed unpaired t test, alpha = 0.05. ***SUR1^K134A vs WT, p < 0.0001; ** Kir6.2^R176A vs WT, p = 0.0029; **SUR1^K134A/Kir6.2^R176A vs WT, p = 0.0012; ^#SUR1^K134A/Kir6.2^R176A vs SUR1^K134A, p = 0.0247; ^$SUR1^K134A/Kir6.2^R176A vs Kir6.2^R176A, p = 0.0353. d Comparison of the time of exposure in PIP2 for currents to reach maximum in different channels. For each group, mean ± SEM of the data points are shown (WT, n = 12; SUR1^K134A, n = 6; Kir6.2^R176A, n = 7; SUR1^K134A/Kir6.2^R176A, n = 6 cells). Statistical significance was tested between mutants and WT or between double and single mutants using two-tailed unpaired t test, alpha = 0.05. ***SUR1^K134A vs WT, p < 0.0001; ***Kir6.2^R176A vs WT, p = 0.0002; ***SUR1^K134A/Kir6.2^R176A vs WT, p < 0.0001; ^##SUR1^K134A/Kir6.2^R176A vs SUR1^K134A, p = 0.0071.
(§2) For electrophysiology experiments, COSm6 cells were co-transfected with various combination of WT or mutant SUR1 and Kir6.2 cDNAs (SUR1 in pECE and Kir6.2 in pCDNA3) along with the cDNA for the Green Fluorescent Protein (to facilitate identification of transfected cells) using FuGENE® 6 (Promega). Mutant SUR1 and Kir6.2 were constructed using QuikChange (mutagenesis primers are shown in Supplementary Table 2). Cells were plated onto glass coverslips 24 h after transfection and recordings made in the following two days. All experiments were performed at room temperature. Micropipettes were pulled from non-heparinized Kimble glass (Fisher Scientific) on a horizontal puller (Sutter Instrument). Electrode resistance was typically 1-2 MΩ when filled with K-INT solution containing 140 mM KCl, 10 mM K-HEPES, 1 mM K-EGTA, 1 mM EDTA, pH 7.3. ATP was added as the potassium salt. Inside-out patches of cells bathed in K-INT were voltage-clamped with an Axopatch 1D amplifier (Axon Instruments). ATP or porcine brain PIP2 (Avanti Polar Lipids; prepared in K-INT and bath sonicated in ice water for 30 min before use) were added to K-INT as specified in the figure legend. All currents were measured at a membrane potential of −50 mV (pipette voltage = +50 mV). Data were analyzed using pCLAMP10 software (Axon Instrument). Off-line analysis was performed using Clampfit and GraphPad. […]

[2] = molecular target: T2, WT (SUR1/Kir6.2) KATP channels (UniProt P70673+Q09427); assay: as above; format: biochemical, rat Kir6.2, hamster SUR1; details: 5 μM PIP2
T2 construct: expressed in transfected cells; host or cells: COSm6
T2 sequence (P70673 whole entry): as above
T2 sequence (Q09427 whole entry): as the sequence (Q09427 whole entry K134A) above, with A134K counted along it
Procedure: as §1, §2

[3] = molecular target: T3, SUR1^K134A/Kir6.2^R176A double mutant channel (UniProt P70673+Q09427, K134A/R176A); assay: as above; format: biochemical, rat Kir6.2, hamster SUR1; details: 5 μM PIP2; −50 mV; mean (± SEM)
T3 construct: expressed in transfected cells; host or cells: COSm6
T3 sequence (Q09427 whole entry K134A): as the sequence (Q09427 whole entry K134A) above
T3 sequence (P70673 whole entry R176A): as the sequence (P70673 whole entry) above, with R176A counted along it
Procedure: as §1, §2

[4] = molecular target: T4, SUR1/Kir6.2^R176A channel (UniProt P70673+Q09427, R176A); assay: as above; format: biochemical, rat Kir6.2, hamster SUR1; details: 5 μM PIP2; −50 mV; mean (± SEM)
T4 construct: expressed in transfected cells; host or cells: COSm6
T4 sequence (Q09427 whole entry): as the sequence (Q09427 whole entry K134A) above, with A134K counted along it
T4 sequence (P70673 whole entry R176A): as the sequence (P70673 whole entry) above, with R176A counted along it
Procedure: as §1, §2

[5] = molecular target: the molecule itself; assay: cryo-EM structure; SUR1/Kir6.2^Q52R channel co-expressed in COSm6 cells; membranes enriched with brain PIP2 (1 mg/mL) before solubilisation in digitonin; purified via the N-terminal FLAG tag on SUR1; 0.2 M NaCl, 0.1 M KCl, 0.05 M HEPES pH 7.5, 0.05% digitonin; no ATP or ADP added; graphene oxide-coated grids

Q: Which “reversibility of channel activation” value (KATP channels; synthetic short-chain PIP2) does the source give for `CCCCCCCC(=O)OC[C@H](COP(=O)(O)O[C@@H]1[C@H](O)[C@H](O)[C@@H](OP(=O)(O)O)[C@H](OP(=O)(O)O)[C@H]1O)OC(=O)CCCCCCC` [diC8-PIP2, diC8-PI(4,5)P2] here?
A: Its value is “readily reversible”.

Q: Which pKa (His175) does the source give for “ATP-sensitive inward rectifier potassium channel Kir6.2 (pore subunit of the KATP channel) (not stated for the quoted measurement (this article's own constructs are rat Kir6.2, Rattus norvegicus, with hamster SUR1))” here?
A: The pKa was 7.16.

Q: For PI(3,4)P2, which “activation of KATP channels” value (KATP channels) is on record?
A: The value was “activated equally well”.

Q: Which “activation of KATP channels” value (KATP channels) does the source give for PI(3,4,5)P3 here?
A: Its value is “activated equally well”.

Q: For PI(4)P, which “activation of KATP channels” value (KATP channels) is on record?
A: The value was “activated”.

Q: What does the source list for PI(4,5)P2 [PIP2]?
A: activation of KATP channels (KATP channels): activated equally well; maximum fold-increase in currents after PIP2 exposure [1]: 3.96 ± 0.47 fold and 3.96 fold; time of exposure in PIP2 for currents to reach maximum [1]: 193.83 ± 33.66 s and 193.83 s; PIP2 exposure until currents plateaued [2]: ≤ 1 min; maximum fold-increase in currents after PIP2 exposure ([2]; −50 mV, mean (± SEM)): 1.45 fold; time of exposure in PIP2 for currents to reach maximum ([2]; −50 mV, mean (± SEM)): 33.17 ± 3.18 s and 33.17 s; maximum fold-increase in currents after PIP2 exposure [3]: 299.65 ± 121.72 fold and 299.65 fold; time of exposure in PIP2 for currents to reach maximum [3]: 419.33 ± 57.86 s and 419.33 s; maximum fold-increase in currents after PIP2 exposure [4]: 48.74 ± 18.25 fold and 48.74 fold; time of exposure in PIP2 for currents to reach maximum [4]: 298.57 ± 73.76 s and 298.57 s

B1: rat Kir6.2^Q52R (natural protein)
chain: MLSRKGIIPEEYVLTRLAEDPTEPRYRTRERRARFVSKKGNCNVAHKNIRERGRFLQDVFTTLVDLKWPHTLLIFTMSFLCSWLLFAMVWWLIAFAHGDLAPGEGTNVPCVTSIHSFSSAFLFSIEVQVTIGFGGRMVTEECPLAILILIVQNIVGLMINAIMLGCIFMKTAQAHRRAETLIFSKHAVITLRHGRLCFMLRVGDLRKSMIISATIHMQVVRKTTSPEGEVVPLHQVDIPMENGVGGNSIFLVAPLIIYHVIDSNSPLYDLAPSDLHHHQDLEIIVILEGVVETTGITTQARTSYLADEILWGQRFVPIVAEEDGRYSVDYSKFGNTVKVPTPLCTARQLDEDRSLLDALTLASSRGPLRKRSVAVAKAKPKFSISPDSLS
notes: Kir6.2, rat, with the neonatal diabetes mutation Q52R; the models hold residues 32-352 (N-terminal 31 residues and the tail beyond 352 not resolved); Four Kir6.2 subunits form the pore of the channel with four SUR1 subunits; the gene was cloned into pShuttle/AdEasy; PDB 6BAA (WT channel) was the starting model; also called Kir6.2 (pore-forming subunit of the SUR1/Kir6.2^Q52R KATP channel); …
Q: For B1, which “stoichiometry N” value [5] is on record?
A: The value was 4.
